Values of other authors as cited in patent publication US20200289552A1, “SOLID COMPOSITION COMPRISING IODINE AGENT AND SODIUM CHLORIDE HAVING IMPROVED WATER SOLUBILITY, AND ANTIVIRAL AND ANTIMICROBIAL COMPOSITION FOR EYE, ORAL CAVITY, NASAL CAVITY OR INHALATION CONTAINING AQUEOUS SOLUTION THEREOF” (FLUCHEM LTD, priority 2017, published 2020).

How the values were obtained:
[1] = U.S. patent Ser. No. 04/950,653
[2] = stored sealed, room temperature and 65° C., for 3 years
[3] = system: highly pathogenic H5N1 and low pathogenic H5N3, H7N7, and H9N7

povidone iodine
time to dissolve in water [1]: 45 min
effective iodine loss [2]: about 0.5%
time to inactivate viruses below a detection limit [3]: less than 10 seconds
